The text below walks through data of US20250353860A1, “PIPERIDINE CARBOXAMIDE AZAINDANE DERIVATIVE, METHOD FOR PREPARING SAME, AND USE THEREOF” (BRISE PHARMACEUTICALS CO., LTD., priority 2022, published 2025).

The target of the first assay is T1, CGRP receptor (Homo sapiens, UniProt O60894+Q16602). Kind of assay: Inhibition of CGRP signaling pathway (cAMP, HTRF) in CHO-K1 cells expressing human CGRP receptors. Format: cell-based. More on the design: host or cells: CHO-K1. The following applies: [α-CGRP]=10 ng/ml; increase in cAMP levels; read-out: IC50 of the inhibitory effect on the CGRP signaling pathway in CHO-K1 cells expressing human CGRP receptors. The protocol:
(§1) The inhibitory effect of the CGRP signaling pathway in vitro is evaluated by measuring the cAMP level. The principle is that after CGRP binds to the CGRP receptor, the CGRP signaling pathway is activated, inducing an increase in the cAMP level. […] The specific experimental method is as follows:
CHO-K1 cells expressing human CGRP receptor (CGRPR/CHO-K1, PerkinElmer, ES-420-C) were cultured in F12K+10% FBS+400 μg/mL G418+10 μg/mL Blasticidin medium, and the cells were collected in the logarithmic growth phase. According to the instructions of the kit, the cells were resuspended in Stimulation Buffer comprising 0.5 mM IBMX, and 5 μL of the cell suspension was added to each well of a 96-well microplate (Cisbio, 66PL96025) at a cell density of 15,000 cells/well. 2.5 μL of gradient diluted compound solution was added to each well. After incubation at 37° C. for 30 minutes, 2.5 μL of 40 ng/ml human α-CGRP (Bachem, H-1470,0500) diluted in Stimulation Buffer comprising 0.5 mM IBMX was added to each well to a final concentration of 10 ng/ml. After incubation at 37° C. for 30 minutes, 5 μL of Anti-cAMP-Cryptate solution and 5 μL of cAMP-d2 solution were added to each well. After incubation at room temperature for 60 minutes, the HTRF signal was read using a microplate reader (Molecular Devices). Graphpad Prism was used to calculate the IC50 value of the compound's inhibitory effect on the increase in cAMP levels based on the compound concentration and HTRF signal.
(TR-FRET usually uses a lanthanide donor and a delayed reading to cut background.)
Take `CC1C(c2c(F)ccc(F)c2F)CC(NC(=O)c2cc3c(s2)CCC2(C3)C(=O)Nc3ncccc32)C(=O)N1CC(F)(F)F` (stereo not shown) [Example 2, N-(6-methyl-2-oxo-1-(2,2,2-trifluoroethyl)-5-(2,3,6-trifluorophenyl)piperidin-3-yl)-2′-oxo-1′,2′,6,7-tetrahydro-4H-spiro[benzo[b]thiophene-5,3′-pyrrolo[2,3-b]pyridine]-2-carboxamide]: the IC50 (commonly the midpoint of a concentration-inhibition curve) worked out at 250 nM.
In the case of `CC1C(c2c(F)ccc(F)c2F)CC(NC(=O)c2cc3c(s2)CC2(C3)C(=O)Nc3ncccc32)C(=O)N1CC(F)(F)F` (stereo not shown) [Example 3, N-(6-methyl-2-oxo-1-(2,2,2-trifluoroethyl)-5-(2,3,6-trifluorophenyl)piperidin-3-yl)-2′-oxo-1′,2′,4,6-tetrahydrospiro[cyclopenta[b]thiophene-5,3′-pyrrolo[2,3-b]pyridine]-2-carboxamide], the IC50 worked out at 64.7 nM.
Same read-out and setting: in the case of `CC1C(c2c(F)ccc(F)c2F)CC(NC(=O)c2cc3c(o2)CCC2(C3)C(=O)Nc3ncccc32)C(=O)N1CC(F)(F)F` (stereo not shown) [Example 1, N-(6-methyl-2-oxo-1-(2,2,2-trifluoroethyl)-5-(2,3,6-trifluorophenyl)piperidin-3-yl)-2′-oxo-1′,2′,6,7-tetrahydro-4H-spiro[benzofuran-5,3′-pyrrolo[2,3-b]pyridine]-2-carboxamide] it was 106 nM; in that of `CC1C(c2c(F)ccc(F)c2F)CC(NC(=O)c2cc3c(o2)CC2(C3)C(=O)Nc3ncccc32)C(=O)N1CC(F)(F)F` (stereo not shown) [Example 4, N-(6-methyl-2-oxo-1-(2,2,2-trifluoroethyl)-5-(2,3,6-trifluorophenyl)piperidin-3-yl)-2′-oxo-1′,2′,4,6-tetrahydrospiro[cyclopenta[b]furan-5,3′-pyrrolo[2,3-b]pyridine]-2-carboxamide], 199 nM.

The next assay concerns the target T1, CGRP receptor. Nature of the assay: Affinity for human CGRP receptor ([125I]h-CGRPα competition, CHO cell membranes). As to conditions: 0.03 nM [125I]h-CGRPα; Cheng Prusoff; read-out: Ki of the affinity determination to human CGRP receptor. Format: binding. More on the design: host or cells: CHO-K1. The protocol: The cell membrane homogenate of CHO cells expressing human CGRP receptor (comprising 16 μg of protein) was incubated with 0.03 nM [^125I]h-CGRPα and gradiently diluted test samples in buffer (50 mM Hepes-NaOH (pH 7.4), 10 mM MgCl2, 4 mM KCl, 10 mM […], 1 mM EDTA, 1 μM phosphorylation amide, 0.3% BSA and 0.04% bacitracin) at 22° C. for 90 minutes. A control group without the test sample was set up to obtain the highest binding signal of the experiment, and the non-specific binding of the experiment was determined by adding 1 μM non-isotope-labeled h-CGRPα to the control group. After the incubation, a glass fiber filter (GF/B, Packard) soaked with 0.3% PEI was placed in a 96-well cell collector (Unfilter, Packard), and the sample was quickly filtered under vacuum and rinsed several times with precooled buffer comprising 50 mM Tris-HCl and 150 mM NaCl. After the filter was dried, scintillation fluid (Microscint 0, Packard) was added and the radioactive signal value was measured using a scintillation counter (Topcount, Packard). The results are expressed as the percentage of inhibition of specific binding of the radioligand. Non-isotope labeled h-CGRPα was used as a standard sample as a control. The test samples and standard samples were tested at multiple concentrations to obtain a competition curve with [^125I]h-CGRPα, thereby calculating the IC50) 20 of each sample. The inhibition constant Ki was further calculated using the Cheng Prusoff equation: Ki=IC50/(1+L/KD), wherein L represents the concentration of [^125I]h-CGRPα in the system (0.03 nM), and KD represents the dissociation constant between [^125I]h-CGRPα and the human CORP receptor in the system (0.06 nM).
As for `C[C@@H]1[C@H](c2ccccc2)C[C@H](NC(=O)c2cnc3c(c2)C[C@@]2(C3)C(=O)Nc3ncccc32)C(=O)N1CC(F)(F)F` [Ubrogepant, reference compound], the Ki (as a rule, the equilibrium dissociation constant of an inhibitor or competing ligand from its target) is 0.027 nM.

The target of a further assay is T1, CGRP receptor. Kind of assay: Inhibition of CGRP signaling pathway (cAMP, HTRF) in SK-N-MC cells. Format: cell-based. More on the design: SK-N-MC (ATCC, HTB-10) cells endogenously expressing CGRP receptor; host or cells: SK-N-MC. The following applies: [α-CGRP]=10 ng/mL; increase in cAMP levels; read-out: IC50 of the inhibitory effect on the CGRP signaling pathway in SK-N-MC cells. On the procedure: as §1
cAMP was determined using the CAMP-GS DYNAMIC KIT detection kit (Cisbio, 62AM4PEB).
SK-N-MC (ATCC, HTB-10) cells endogenously expressing CGRP receptor were cultured in EMEM+10% FBS medium and the cells were collected during the logarithmic growth phase. According to the instructions of the kit, the cells were resuspended in Stimulation Buffer comprising 0.5 mM IBMX, and 5 μL of the cell suspension was added to each well of a 96-well microplate (Cisbio, 66PL96025) at a cell density of 15,000 cells/well, 2.5 μL of gradient diluted compound solution was added to each well. After incubation at 37° C. for 30 minutes, 2.5 μL of 40 ng/ml human α-CGRP (Bachem, H-1470.0500) diluted in Stimulation Buffer comprising 0.5 mM IBMX was added to each well to a final concentration of 10 ng/ml. After incubation at 37° C. for 30 minutes, 5 μL of Anti-cAMP-Cryptate solution and 5 μL of cAMP-d2 solution were added to each well. After incubation at room temperature for 60 minutes, the HTRF signal was read using a microplate reader (Molecular Devices). Graphpad Prism was used to calculate the IC50 value of the compound's inhibitory effect on the increase in cAMP levels based on the compound concentration and HTRF signal.
Take `C[C@@H]1[C@H](c2c(F)ccc(F)c2F)C[C@H](NC(=O)c2nc3c(s2)CC2(CC3)C(=O)Nc3ncccc32)C(=O)N1CC(F)(F)F` (stereo partly drawn) [Example 9, N-((3S,5S,6R)-6-methyl-2-oxo-1-(2,2,2-trifluoroethyl)-5-(2,3,6-trifluorophenyl)piperidin-3-yl)-2′-oxo-1′,2′,4,7-tetrahydro-5H-spiro[benzo[d]thiazole-6,3′-pyrrolo[2,3-b]pyridine]-2-carboxamide]: the IC50 is more than 100 nM.
Consider `C[C@@H]1[C@H](c2c(F)ccc(F)c2F)C[C@H](NC(=O)c2nc3c(s2)CC2(C3)C(=O)Nc3ncccc32)C(=O)N1CC(F)(F)F` (stereo partly drawn) [Example 11, N-((3S,5S,6R)-6-methyl-2-oxo-1-(2,2,2-trifluoroethyl)-5-(2,3,6-trifluorophenyl)piperidin-3-yl)-2′-oxo-1′,2′,4,6-tetrahydrospiro[cyclopenta[d]thiazole-5,3′-pyrrolo[2,3-b]pyridine]-2-carboxamide], for which the IC50 was 11 nM.
Same read-out and setting: in the case of `C[C@@H]1[C@H](c2c(F)ccc(F)c2F)C[C@H](NC(=O)c2cc3c([nH]2)CC2(C3)C(=O)Nc3ncccc32)C(=O)N1CC(F)(F)F` (stereo partly drawn) [Example 10, N-((3S,5S,6R)-6-methyl-2-oxo-1-(2,2,2-trifluoroethyl)-5-(2,3,6-trifluorophenyl)piperidin-3-yl)-2′-oxo-1′,2′,4,6-tetrahydro-1H-spiro[cyclopenta[b]pyrrole-5,3′-pyrrolo[2,3-b]pyridine]-2-carboxamide] it was 6.8 nM.
The same measure, in the same setting: in the case of `C[C@@H]1[C@H](c2c(F)ccc(F)c2F)C[C@H](NC(=O)c2cc3c([nH]2)CCC2(C3)C(=O)Nc3ncccc32)C(=O)N1CC(F)(F)F` (stereo partly drawn) [Example 13, N-((3S,5S,6R)-6-methyl-2-oxo-1-(2,2,2-trifluoroethyl)-5-(2,3,6-trifluorophenyl)piperidin-3-yl)-2′-oxo-1,1′,2′,4,6,7-hexahydrospiro[indole-5,3′-pyrrolo[2,3-b]pyridine]-2-carboxamide] it was 0.89 nM; in that of `C[C@@H]1[C@H](c2c(F)ccc(F)c2F)C[C@H](NC(=O)c2nc3c(o2)CCC2(C3)C(=O)Nc3ncccc32)C(=O)N1CC(F)(F)F` (stereo partly drawn) [Example 12, N-((3S,5S,6R)-6-methyl-2-oxo-1-(2,2,2-trifluoroethyl)-5-(2,3,6-trifluorophenyl)piperidin-3-yl)-2′-oxo-1′,2′,6,7-tetrahydro-4H-spiro[benzo[d]oxazole-5, 3′-pyrrolo[2,3-b]pyridine]-2-carboxamide], 53.6 nM.
